Measured values: patent US20080009418A1, “Selective Inhibitors” (Alchemia LTD., priority 2004, published 2008)

Legend:
Human δ-opioid (DOP) = target: T1, Human δ-opioid (DOP) (Homo sapiens, UniProt P41143); test: Radioligand binding, human δ-opioid (DOP) membranes, FlashPlate, [3H]-Bremazocine; settings: compound at 10 μM; [3H]-Bremazocine
T1 construct: purchased Perkin Elmer Biosignal
Procedure, shortened: (§1)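 Cloned human receptor membranes were coated onto FlashPlate wells and incubated with radioligand and compound (added from a 0.5 mM DMSO daughter plate) for 1 hour at room temperature in the dark. Scintillation counting gave percent inhibition, with DMSO defining total and reference ligand defining non-specific binding.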

Human κ-Opioid (KOP) = target: T2, Human κ-Opioid (KOP) (Homo sapiens, UniProt P41145); test: Radioligand binding, human κ-opioid (KOP) membranes, filtration, [3H]-Diprenorphine; settings: compound at 10 μM; [3H]-Diprenorphine
T2 construct: purchased Perkin Elmer Biosignal
T2 sequence (P41145 whole entry): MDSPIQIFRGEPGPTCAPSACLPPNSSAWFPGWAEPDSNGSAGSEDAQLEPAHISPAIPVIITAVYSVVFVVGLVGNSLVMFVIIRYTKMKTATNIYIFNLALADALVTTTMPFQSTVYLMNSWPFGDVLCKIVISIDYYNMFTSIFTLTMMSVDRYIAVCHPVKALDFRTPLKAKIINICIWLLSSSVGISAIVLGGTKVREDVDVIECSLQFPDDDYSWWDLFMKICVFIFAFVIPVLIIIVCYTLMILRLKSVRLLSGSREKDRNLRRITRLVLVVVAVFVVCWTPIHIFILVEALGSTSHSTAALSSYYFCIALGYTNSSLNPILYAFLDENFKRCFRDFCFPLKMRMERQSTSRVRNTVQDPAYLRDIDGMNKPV
Procedure, shortened: (§2)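 Percent inhibition of radioligand binding measured on recombinant human membranes: NK1 with [125I]-Substance P, KOP with [3H]-Diprenorphine. Incubation 1 h at room temperature, then harvest onto 0.3% PEI-soaked filters, cold Tris-HCl pH 7.4 washes and scintillation counting; non-specific binding from reference ligand wells.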

Human Melanocortin (MC3) = target: T3, Human Melanocortin (MC3) (Homo sapiens, UniProt P41968); test: Radioligand binding, human melanocortin MC3 membranes, FlashPlate, [125I]-NDP-αMSH; settings: compound at 10 μM; [125I]-NDP-αMSH
T3 construct: purchased Perkin Elmer Biosignal
T3 sequence (P41968 whole entry): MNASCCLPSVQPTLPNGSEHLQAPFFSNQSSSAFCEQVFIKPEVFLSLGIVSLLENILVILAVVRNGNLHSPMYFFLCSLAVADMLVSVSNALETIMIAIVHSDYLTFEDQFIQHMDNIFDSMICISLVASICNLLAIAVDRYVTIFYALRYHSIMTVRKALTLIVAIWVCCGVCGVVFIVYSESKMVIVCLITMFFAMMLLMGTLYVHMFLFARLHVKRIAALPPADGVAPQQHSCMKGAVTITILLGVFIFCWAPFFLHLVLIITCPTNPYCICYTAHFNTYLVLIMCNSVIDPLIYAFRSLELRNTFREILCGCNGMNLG
Procedure, shortened: as §1

Human Melanocortin (MC4) = target: T4, Human Melanocortin (MC4) (Homo sapiens, UniProt P32245); test: Radioligand binding, human melanocortin MC4 membranes, FlashPlate, [125I]-NDP-αMSH; settings: compound at 10 μM; [125I]-NDP-αMSH
T4 construct: purchased Perkin Elmer Biosignal
T4 sequence (P32245 whole entry): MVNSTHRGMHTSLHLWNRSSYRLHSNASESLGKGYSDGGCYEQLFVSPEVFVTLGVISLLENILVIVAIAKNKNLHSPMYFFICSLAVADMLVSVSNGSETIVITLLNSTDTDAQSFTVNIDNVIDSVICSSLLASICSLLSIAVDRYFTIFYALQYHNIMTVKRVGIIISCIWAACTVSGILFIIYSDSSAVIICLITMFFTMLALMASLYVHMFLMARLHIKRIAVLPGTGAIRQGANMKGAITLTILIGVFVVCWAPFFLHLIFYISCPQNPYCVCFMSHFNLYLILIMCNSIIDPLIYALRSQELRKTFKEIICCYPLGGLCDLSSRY
Procedure, shortened: as §1

Human melanocortin (MC5) = target: T5, Human melanocortin (MC5) (Homo sapiens, UniProt P33032); test: Radioligand binding, human melanocortin MC5 membranes, FlashPlate, [125I]-NDP-αMSH; settings: compound at 10 μM; [125I]-NDP-αMSH
T5 construct: purchased Perkin Elmer Biosignal
T5 sequence (P33032 whole entry): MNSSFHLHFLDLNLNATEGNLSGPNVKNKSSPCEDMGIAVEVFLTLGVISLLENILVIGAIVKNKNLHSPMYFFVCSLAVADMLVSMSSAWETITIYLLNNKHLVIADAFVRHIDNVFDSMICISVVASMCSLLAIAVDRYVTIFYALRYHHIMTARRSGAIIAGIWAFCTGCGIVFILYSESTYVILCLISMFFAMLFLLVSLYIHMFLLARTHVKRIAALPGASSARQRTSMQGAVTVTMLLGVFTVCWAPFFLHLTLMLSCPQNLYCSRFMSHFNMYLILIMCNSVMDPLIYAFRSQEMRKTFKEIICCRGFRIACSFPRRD
Procedure, shortened: as §1

[1] = target: T6, Human melanin-concentrating hormone (MCH1) (Homo sapiens, UniProt Q99705); test: Radioligand binding, human melanin-concentrating hormone MCH1 membranes, FlashPlate, [125I]-S36057; settings: compound at 10 μM; [125I]-S36057
T6 construct: purchased Perkin Elmer Biosignal
T6 sequence (Q99705 whole entry): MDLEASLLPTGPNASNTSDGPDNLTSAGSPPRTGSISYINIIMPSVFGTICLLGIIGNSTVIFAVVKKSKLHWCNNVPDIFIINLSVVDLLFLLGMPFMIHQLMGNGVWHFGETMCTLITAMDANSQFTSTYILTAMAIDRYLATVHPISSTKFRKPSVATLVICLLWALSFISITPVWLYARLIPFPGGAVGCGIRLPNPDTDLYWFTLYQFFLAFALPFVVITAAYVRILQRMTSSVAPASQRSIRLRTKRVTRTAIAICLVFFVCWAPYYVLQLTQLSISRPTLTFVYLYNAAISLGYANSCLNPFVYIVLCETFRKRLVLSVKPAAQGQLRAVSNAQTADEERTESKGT
Procedure, shortened: as §1

Human μ-opioid (MOP) = target: T7, Human μ-opioid (MOP) (Homo sapiens, UniProt P35372); test: Radioligand binding, human μ-opioid (MOP) membranes, FlashPlate, [3H]-Naloxone; settings: compound at 10 μM; [3H]-Naloxone
T7 construct: purchased Perkin Elmer Biosignal
T7 sequence (P35372 whole entry): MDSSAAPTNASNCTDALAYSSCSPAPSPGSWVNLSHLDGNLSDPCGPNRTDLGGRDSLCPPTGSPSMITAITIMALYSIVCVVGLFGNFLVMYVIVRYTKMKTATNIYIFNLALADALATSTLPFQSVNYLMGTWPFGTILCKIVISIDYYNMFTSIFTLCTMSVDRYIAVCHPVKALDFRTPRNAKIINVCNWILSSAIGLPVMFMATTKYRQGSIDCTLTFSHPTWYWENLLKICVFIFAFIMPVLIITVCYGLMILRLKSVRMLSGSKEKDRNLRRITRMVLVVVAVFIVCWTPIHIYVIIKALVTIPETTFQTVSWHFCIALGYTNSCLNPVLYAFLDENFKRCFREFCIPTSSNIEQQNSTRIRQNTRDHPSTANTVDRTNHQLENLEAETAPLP
Procedure, shortened: as §1

Human neurokinin (NK1) = target: T8, Human neurokinin (NK1) (Homo sapiens, UniProt P25103); test: Radioligand binding, human neurokinin NK1 membranes, filtration, [125I]-Substance P; settings: compound at 10 μM; [125I]-Substance P
T8 construct: purchased Perkin Elmer Biosignal
T8 sequence (P25103 whole entry): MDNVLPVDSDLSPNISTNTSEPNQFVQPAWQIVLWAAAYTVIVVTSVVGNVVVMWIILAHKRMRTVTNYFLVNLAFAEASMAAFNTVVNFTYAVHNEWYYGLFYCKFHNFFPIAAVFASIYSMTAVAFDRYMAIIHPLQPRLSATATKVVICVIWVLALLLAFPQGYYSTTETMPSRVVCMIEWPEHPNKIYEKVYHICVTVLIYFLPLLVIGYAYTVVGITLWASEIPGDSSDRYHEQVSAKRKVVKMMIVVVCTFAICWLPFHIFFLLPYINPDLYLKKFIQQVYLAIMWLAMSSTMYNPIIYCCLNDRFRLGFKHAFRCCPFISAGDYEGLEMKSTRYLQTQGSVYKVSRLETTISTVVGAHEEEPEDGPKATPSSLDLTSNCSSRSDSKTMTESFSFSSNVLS
Procedure, shortened: as §2

[2] = target: T9, Human neuropeptide Y (NPY-Y1) (Homo sapiens, UniProt P25929); test: Radioligand binding, human neuropeptide Y NPY-Y1 membranes, FlashPlate, [125I]-PYY; settings: compound at 10 μM; [125I]-PYY
T9 construct: purchased Perkin Elmer Biosignal
T9 sequence (P25929 1-384): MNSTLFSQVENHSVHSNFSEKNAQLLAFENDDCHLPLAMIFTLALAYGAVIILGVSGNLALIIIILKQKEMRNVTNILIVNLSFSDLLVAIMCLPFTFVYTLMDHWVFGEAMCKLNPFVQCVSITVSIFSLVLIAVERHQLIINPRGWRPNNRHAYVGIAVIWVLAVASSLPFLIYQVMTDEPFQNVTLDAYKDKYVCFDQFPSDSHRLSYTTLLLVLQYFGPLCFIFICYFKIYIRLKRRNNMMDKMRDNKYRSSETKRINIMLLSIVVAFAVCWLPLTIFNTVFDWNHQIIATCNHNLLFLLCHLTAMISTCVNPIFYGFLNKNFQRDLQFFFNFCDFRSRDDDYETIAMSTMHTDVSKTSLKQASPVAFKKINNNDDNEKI
Procedure, shortened: as §1

Human opioid (ORL1) = target: T10, Human opioid (ORL1) (Homo sapiens, UniProt P41146); test: Radioligand binding, human opioid ORL1 membranes, FlashPlate, [125I]-Nociceptin; settings: compound at 10 μM; [125I]-Nociceptin
T10 construct: purchased Perkin Elmer Biosignal
T10 sequence (P41146 whole entry): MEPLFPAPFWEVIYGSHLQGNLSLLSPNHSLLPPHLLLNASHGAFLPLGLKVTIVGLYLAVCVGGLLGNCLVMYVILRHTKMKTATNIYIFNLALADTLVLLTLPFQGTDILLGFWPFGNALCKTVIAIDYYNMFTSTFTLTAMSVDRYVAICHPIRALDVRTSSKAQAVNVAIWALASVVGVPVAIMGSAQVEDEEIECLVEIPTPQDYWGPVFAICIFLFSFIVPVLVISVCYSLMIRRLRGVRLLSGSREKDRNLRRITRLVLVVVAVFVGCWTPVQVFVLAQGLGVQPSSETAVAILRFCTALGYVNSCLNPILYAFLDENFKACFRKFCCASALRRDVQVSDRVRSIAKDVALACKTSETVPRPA
Procedure, shortened: as §1

Mouse urotensin (mUR2) = target: T11, Mouse urotensin (mUR2) (Mus musculus, UniProt Q8VIH9); test: Radioligand binding, mouse urotensin mUR2 membranes, FlashPlate, [125I]-Urotensin II; settings: compound at 10 μM; [125I]-Urotensin II
T11 construct: purchased Perkin Elmer Biosignal
T11 sequence (Q8VIH9 1-385): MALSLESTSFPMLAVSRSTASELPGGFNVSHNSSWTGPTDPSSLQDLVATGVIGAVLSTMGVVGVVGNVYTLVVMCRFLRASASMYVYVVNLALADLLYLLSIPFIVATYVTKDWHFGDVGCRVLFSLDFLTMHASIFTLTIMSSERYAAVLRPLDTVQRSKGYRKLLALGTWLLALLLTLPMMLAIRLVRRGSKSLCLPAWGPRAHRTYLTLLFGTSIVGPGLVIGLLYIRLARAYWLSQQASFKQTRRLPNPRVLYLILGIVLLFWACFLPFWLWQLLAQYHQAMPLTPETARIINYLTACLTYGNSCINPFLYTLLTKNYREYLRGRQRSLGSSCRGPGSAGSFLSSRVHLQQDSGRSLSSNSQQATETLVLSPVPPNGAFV
Procedure, shortened: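 Cloned mouse urotensin (mUR2) receptor membranes from Perkin Elmer Biosignal were immobilized in FlashPlate microplates using a proprietary coating. Each well got 19.5 μl buffer, then 0.5 μl of DMSO, reference ligand, or compound. Adding 5 μl of [125I]-Urotensin II, diluted to 5× final concentration in binding buffer, started binding. Plates were sealed with TopSeal-A and incubated 1 hour at room temperature in the dark. Wells were counted for 30 seconds each on a TopCount after a 60-second delay, and percentage inhibition was calculated.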

T1 sequence (P41143 whole entry): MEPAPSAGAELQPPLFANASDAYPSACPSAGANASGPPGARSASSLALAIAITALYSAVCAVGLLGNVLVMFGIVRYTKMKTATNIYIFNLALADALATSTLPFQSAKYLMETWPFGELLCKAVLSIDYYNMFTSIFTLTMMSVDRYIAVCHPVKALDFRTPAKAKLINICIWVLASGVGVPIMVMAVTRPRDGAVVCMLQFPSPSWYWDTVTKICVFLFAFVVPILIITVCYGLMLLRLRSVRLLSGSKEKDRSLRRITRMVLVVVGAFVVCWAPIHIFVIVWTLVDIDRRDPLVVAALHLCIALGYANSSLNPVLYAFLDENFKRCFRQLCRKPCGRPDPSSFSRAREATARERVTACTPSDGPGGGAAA

Compound	A1 radioligand binding, percentage inhibition (Human δ-opioid (DOP))	A2 radioligand binding, percentage inhibition (Human κ-Opioid (KOP))	A3 radioligand binding, percentage inhibition (Human Melanocortin (MC3))	A4 radioligand binding, percentage inhibition (Human Melanocortin (MC4))	A5 radioligand binding, percentage inhibition (Human melanocortin (MC5))	A6 radioligand binding, percentage inhibition [1]	A7 radioligand binding, percentage inhibition (Human μ-opioid (MOP))	A8 radioligand binding, percentage inhibition (Human neurokinin (NK1))	A9 radioligand binding, percentage inhibition [2]	A10 radioligand binding, percentage inhibition (Human opioid (ORL1))	A11 radioligand binding, percentage inhibition (Mouse urotensin (mUR2))
CO[C@H]1[C@H](O)[C@@H](COCc2ccc(Cl)cc2)OC(OCc2ccc(Cl)cc2)[C@@H]1NC(=O)CCNC(=N)N (stereo partly shown) [compound 106]	− (“−” indicates less than 50% inhibition at 10 μM)	− (“−” indicates less than 50% inhibition at 10 μM)	+ (“+” indicates greater than 50% inhibition at 10 μM)	+ (“+” indicates greater than 50% inhibition at 10 μM)	+ (“+” indicates greater than 50% inhibition at 10 μM)	− (“−” indicates less than 50% inhibition at 10 μM)	− (“−” indicates less than 50% inhibition at 10 μM)	+ (“+” indicates greater than 50% inhibition at 10 μM)	− (“−” indicates less than 50% inhibition at 10 μM)	− (“−” indicates less than 50% inhibition at 10 μM)	− (“−” indicates less than 50% inhibition at 10 μM)
CO[C@H]1[C@H](O)[C@@H](COCc2ccc(Cl)cc2)OC(OCc2ccc(Cl)cc2)[C@@H]1NC(=O)CCCN (stereo partly shown) [compound 107]	− (“−” indicates less than 50% inhibition at 10 μM)	− (“−” indicates less than 50% inhibition at 10 μM)	− (“−” indicates less than 50% inhibition at 10 μM)	+ (“+” indicates greater than 50% inhibition at 10 μM)	+ (“+” indicates greater than 50% inhibition at 10 μM)	− (“−” indicates less than 50% inhibition at 10 μM)	− (“−” indicates less than 50% inhibition at 10 μM)	+ (“+” indicates greater than 50% inhibition at 10 μM)	− (“−” indicates less than 50% inhibition at 10 μM)	− (“−” indicates less than 50% inhibition at 10 μM)	− (“−” indicates less than 50% inhibition at 10 μM)
CO[C@H]1[C@H](O)[C@@H](COCc2ccc(Cl)cc2)OC(OCc2ccc(Cl)cc2)[C@@H]1NC(=O)CCCNC(=N)N (stereo partly shown) [compound 108]	− (“−” indicates less than 50% inhibition at 10 μM)	− (“−” indicates less than 50% inhibition at 10 μM)	+ (“+” indicates greater than 50% inhibition at 10 μM)	+ (“+” indicates greater than 50% inhibition at 10 μM)	+ (“+” indicates greater than 50% inhibition at 10 μM)	− (“−” indicates less than 50% inhibition at 10 μM)	− (“−” indicates less than 50% inhibition at 10 μM)	+ (“+” indicates greater than 50% inhibition at 10 μM)	− (“−” indicates less than 50% inhibition at 10 μM)	− (“−” indicates less than 50% inhibition at 10 μM)	− (“−” indicates less than 50% inhibition at 10 μM)
CO[C@H]1[C@H](O)[C@@H](COCc2ccc(-c3ccccc3)cc2)OC(OCCc2ccccc2)[C@@H]1NC(=O)CNC(=N)N (stereo partly shown) [compound 109]	− (“−” indicates less than 50% inhibition at 10 μM)	− (“−” indicates less than 50% inhibition at 10 μM)	+ (“+” indicates greater than 50% inhibition at 10 μM)	+ (“+” indicates greater than 50% inhibition at 10 μM)	+ (“+” indicates greater than 50% inhibition at 10 μM)	− (“−” indicates less than 50% inhibition at 10 μM)	− (“−” indicates less than 50% inhibition at 10 μM)	− (“−” indicates less than 50% inhibition at 10 μM)	− (“−” indicates less than 50% inhibition at 10 μM)	− (“−” indicates less than 50% inhibition at 10 μM)	− (“−” indicates less than 50% inhibition at 10 μM)
CO[C@H]1[C@H](O)[C@@H](COCc2ccc(-c3ccccc3)cc2)OC(OCCc2ccccc2)[C@@H]1NC(=O)CCNC(=N)N (stereo partly shown) [compound 110]	− (“−” indicates less than 50% inhibition at 10 μM)	− (“−” indicates less than 50% inhibition at 10 μM)	− (“−” indicates less than 50% inhibition at 10 μM)	+ (“+” indicates greater than 50% inhibition at 10 μM)	+ (“+” indicates greater than 50% inhibition at 10 μM)	− (“−” indicates less than 50% inhibition at 10 μM)	− (“−” indicates less than 50% inhibition at 10 μM)	− (“−” indicates less than 50% inhibition at 10 μM)	− (“−” indicates less than 50% inhibition at 10 μM)	− (“−” indicates less than 50% inhibition at 10 μM)	− (“−” indicates less than 50% inhibition at 10 μM)
